In PubChem BioAssay AID1918948 (Molecular Pharmacology Branch, DTP, NCI, 2023):
Several values for one entry are separate records, joined by “and”; a condition that tells them apart may be missing. Equal values may be shown once. Values belong to the compound of their own block, whether it stands above or below them.

Test system: K-562 leukemia growth, % test/control
Experiment: Anticancer human tumor K-562 cell line growth inhibition;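 on viability, T/C: 100% = DMSO vehicle wells and lower values mean fewer viable cells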
Conditions: spheroids with HUVEC and MSC; for viability, T/C: stronger effect = lower value
Method in brief: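 Complex spheroids of tumor cells with HUVEC and human MSCs, exposed to iadademstat combined with other agents. Each agent tested in half-log steps from near clinical Cmax (else 10 microM top), DMSO ≤0.25%.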

[1] = curve of first compound, second compound 0.1 µM
[2] = curve of first compound, second compound 0.316 µM
[3] = curve of first compound, second compound 1 µM
[4] = curve of first compound, second compound 3.16 µM
[5] = curve of first compound, second compound 10 µM
[6] = second compound 0.1 µM, first compound 0.000949 µM
[7] = second compound 0.1 µM, first compound 0.003 µM
[8] = second compound 0.1 µM, first compound 0.00949 µM
[9] = second compound 0.1 µM, first compound 0.03 µM
[10] = second compound 0.1 µM, first compound 0.0949 µM
[11] = second compound 0.1 µM, first compound 0.3 µM
[12] = second compound 0.316 µM, first compound 0.000949 µM
[13] = second compound 0.316 µM, first compound 0.003 µM
[14] = second compound 0.316 µM, first compound 0.00949 µM
[15] = second compound 0.316 µM, first compound 0.03 µM
[16] = second compound 0.316 µM, first compound 0.0949 µM
[17] = second compound 0.316 µM, first compound 0.3 µM
[18] = second compound 1 µM, first compound 0.000949 µM
[19] = second compound 1 µM, first compound 0.003 µM
[20] = second compound 1 µM, first compound 0.00949 µM
[21] = second compound 1 µM, first compound 0.03 µM
[22] = second compound 1 µM, first compound 0.0949 µM
[23] = second compound 1 µM, first compound 0.3 µM
[24] = second compound 3.16 µM, first compound 0.000949 µM
[25] = second compound 3.16 µM, first compound 0.003 µM
[26] = second compound 3.16 µM, first compound 0.00949 µM
[27] = second compound 3.16 µM, first compound 0.03 µM
[28] = second compound 3.16 µM, first compound 0.0949 µM
[29] = second compound 3.16 µM, first compound 0.3 µM
[30] = second compound 10 µM, first compound 0.000949 µM
[31] = second compound 10 µM, first compound 0.003 µM
[32] = second compound 10 µM, first compound 0.00949 µM
[33] = second compound 10 µM, first compound 0.03 µM
[34] = second compound 10 µM, first compound 0.0949 µM
[35] = second compound 10 µM, first compound 0.3 µM
[36] = second compound 0.1 µM, first compound 0.000316 µM
[37] = second compound 0.1 µM, first compound 0.001 µM
[38] = second compound 0.1 µM, first compound 0.00316 µM
[39] = second compound 0.1 µM, first compound 0.01 µM
[40] = second compound 0.1 µM, first compound 0.0316 µM
[41] = second compound 0.1 µM, first compound 0.1 µM
[42] = second compound 0.316 µM, first compound 0.000316 µM
[43] = second compound 0.316 µM, first compound 0.001 µM
[44] = second compound 0.316 µM, first compound 0.00316 µM
[45] = second compound 0.316 µM, first compound 0.01 µM
[46] = second compound 0.316 µM, first compound 0.0316 µM
[47] = second compound 0.316 µM, first compound 0.1 µM
[48] = second compound 1 µM, first compound 0.000316 µM
[49] = second compound 1 µM, first compound 0.001 µM
[50] = second compound 1 µM, first compound 0.00316 µM
[51] = second compound 1 µM, first compound 0.01 µM
[52] = second compound 1 µM, first compound 0.0316 µM
[53] = second compound 1 µM, first compound 0.1 µM
[54] = second compound 3.16 µM, first compound 0.000316 µM
[55] = second compound 3.16 µM, first compound 0.001 µM
[56] = second compound 3.16 µM, first compound 0.00316 µM
[57] = second compound 3.16 µM, first compound 0.01 µM
[58] = second compound 3.16 µM, first compound 0.0316 µM
[59] = second compound 3.16 µM, first compound 0.1 µM
[60] = second compound 10 µM, first compound 0.000316 µM
[61] = second compound 10 µM, first compound 0.001 µM
[62] = second compound 10 µM, first compound 0.00316 µM
[63] = second compound 10 µM, first compound 0.01 µM
[64] = second compound 10 µM, first compound 0.0316 µM
[65] = second compound 10 µM, first compound 0.1 µM

Compound: CCc1c2c(nc3ccc(O)cc13)-c1cc3c(c(=O)n1C2)COC(=O)[C@]3(O)CC + NC1CC1c1ccc(-c2cccc(O)c2)cc1
IC50 [1]: < 0.949 nM
IC50 [2]: < 0.949 nM
IC50 [3]: < 0.949 nM
IC50 [4]: < 0.949 nM
IC50 [5]: < 0.949 nM
viability, T/C [6]: 10.6%
viability, T/C [7]: 4.88%
viability, T/C [8]: 2.16%
viability, T/C [9]: 0.75%
viability, T/C [10]: 0.56%
viability, T/C [11]: 0.55%
viability, T/C [12]: 8.09%
viability, T/C [13]: 3.51%
viability, T/C [14]: 1.86%
viability, T/C [15]: 0.71%
viability, T/C [16]: 0.44%
viability, T/C [17]: 0.5%
viability, T/C [18]: 7.04%
viability, T/C [19]: 3.48%
viability, T/C [20]: 1.67%
viability, T/C [21]: 0.89%
viability, T/C [22]: 0.51%
viability, T/C [23]: 0.57%
viability, T/C [24]: 7.47%
viability, T/C [25]: 4.23%
viability, T/C [26]: 2.63%
viability, T/C [27]: 0.67%
viability, T/C [28]: 0.46%
viability, T/C [29]: 0.55%
viability, T/C [30]: 5.81%
viability, T/C [31]: 2.92%
viability, T/C [32]: 1.32%
viability, T/C [33]: 0.74%
viability, T/C [34]: 0.43%
viability, T/C [35]: 1.23%

Compound: Nc1ccn(C2OC(CO)C(O)C2(F)F)c(=O)n1 (configuration not stated) + NC1CC1c1ccc(-c2cccc(O)c2)cc1
IC50 [1]: 9.42 nM
IC50 [2]: 8.17 nM
IC50 [3]: 7.91 nM
IC50 [4]: 6.77 nM
IC50 [5]: 5.86 nM
viability, T/C [6]: 105%
viability, T/C [7]: 99.8%
viability, T/C [8]: 49.8%
viability, T/C [9]: 12.8%
viability, T/C [10]: 10.7%
viability, T/C [11]: 11.8%
viability, T/C [12]: 107%
viability, T/C [13]: 102%
viability, T/C [14]: 42.1%
viability, T/C [15]: 10.5%
viability, T/C [16]: 8.16%
viability, T/C [17]: 8.05%
viability, T/C [18]: 106%
viability, T/C [19]: 102%
viability, T/C [20]: 40.2%
viability, T/C [21]: 7.41%
viability, T/C [22]: 7.12%
viability, T/C [23]: 7.2%
viability, T/C [24]: 103%
viability, T/C [25]: 101%
viability, T/C [26]: 29%
viability, T/C [27]: 6.83%
viability, T/C [28]: 6.72%
viability, T/C [29]: 7.82%
viability, T/C [30]: 100%
viability, T/C [31]: 93.2%
viability, T/C [32]: 19%
viability, T/C [33]: 5.75%
viability, T/C [34]: 6.04%
viability, T/C [35]: 7.9%

IC50 (curve of compound): > 100 nM
Compound: Cn1ncnc1C1c2n[nH]c(=O)c3cc(F)cc(c23)NC1c1ccc(F)cc1 (configuration not stated)
viability, T/C (compound 0.000316 µM): 104% and 106%
viability, T/C (compound 0.001 µM): 95.2% and 105%
viability, T/C (compound 0.00316 µM): 98.8% and 96.9%
viability, T/C (compound 0.01 µM): 98.7% and 102%
viability, T/C (compound 0.0316 µM): 99.4% and 102%
viability, T/C (compound 0.1 µM): 96.7% and 97.5%

Compound: CC(C)CC(NC(=O)CNC(=O)c1cc(Cl)ccc1Cl)B1OC(=O)CC(CC(=O)O)(C(=O)O)O1 (configuration not stated) + NC1CCC(NC2CC2c2ccccc2)CC1
IC50 [1]: 12.9 nM
IC50 [2]: 12.8 nM
IC50 [3]: 13.1 nM
IC50 [4]: 13.4 nM
IC50 [5]: 11.7 nM
viability, T/C [36]: 102%
viability, T/C [37]: 96.6%
viability, T/C [38]: 100%
viability, T/C [39]: 59.5%
viability, T/C [40]: 15.6%
viability, T/C [41]: 6.56%
viability, T/C [42]: 99.6%
viability, T/C [43]: 102%
viability, T/C [44]: 102%
viability, T/C [45]: 58.7%
viability, T/C [46]: 16.7%
viability, T/C [47]: 6.02%
viability, T/C [48]: 104%
viability, T/C [49]: 102%
viability, T/C [50]: 102%
viability, T/C [51]: 61.5%
viability, T/C [52]: 12.8%
viability, T/C [53]: 6.77%
viability, T/C [54]: 103%
viability, T/C [55]: 98.1%
viability, T/C [56]: 103%
viability, T/C [57]: 60.6%
viability, T/C [58]: 16.9%
viability, T/C [59]: 5.71%
viability, T/C [60]: 97.9%
viability, T/C [61]: 99.5%
viability, T/C [62]: 96.5%
viability, T/C [63]: 54.2%
viability, T/C [64]: 16.9%
viability, T/C [65]: 4.71%

Compound: CC(C)CC(NC(=O)CNC(=O)c1cc(Cl)ccc1Cl)B1OC(=O)CC(CC(=O)O)(C(=O)O)O1 (configuration not stated) + NC1CC1c1ccc(-c2cccc(O)c2)cc1
IC50 [1]: 14.2 nM
IC50 [2]: 12.7 nM
IC50 [3]: 9.67 nM
IC50 [4]: 7.83 nM
IC50 [5]: 6.56 nM
viability, T/C [36]: 110%
viability, T/C [37]: 105%
viability, T/C [38]: 107%
viability, T/C [39]: 66.6%
viability, T/C [40]: 11.4%
viability, T/C [41]: 2.83%
viability, T/C [42]: 107%
viability, T/C [43]: 99.7%
viability, T/C [44]: 102%
viability, T/C [45]: 60%
viability, T/C [46]: 10.7%
viability, T/C [47]: 2.8%
viability, T/C [48]: 103%
viability, T/C [49]: 96.1%
viability, T/C [50]: 102%
viability, T/C [51]: 48.4%
viability, T/C [52]: 9.51%
viability, T/C [53]: 2.55%
viability, T/C [54]: 101%
viability, T/C [55]: 96.6%
viability, T/C [56]: 101%
viability, T/C [57]: 36.7%
viability, T/C [58]: 9.01%
viability, T/C [59]: 2.3%
viability, T/C [60]: 95.5%
viability, T/C [61]: 96.8%
viability, T/C [62]: 97.2%
viability, T/C [63]: 23.1%
viability, T/C [64]: 5.77%
viability, T/C [65]: 1.88%
